Measurements as given in patent US20120157448A1, “COMPOUNDS FOR TREATING NEURODEGENERATIVE DISEASES” (priority 2010, published 2012).
Read-outs that look alike come from different tables or passages of the source.

Molecular target: T1, BACE-1 (Homo sapiens, UniProt P56817)
T1 construct: endogenous in cells; host or cells: HEK-293 cells stably transfected with wild type APP695
Experiment: Cellular BACE-1 inhibition assay (in vitro cellular Amyloidβ 1-40 production, HTRF immunoassay)
Assay type: cell-based
Protocol: Materials and Methods: HEK-293 cells stably transfected with a DNA construct containing the coding sequence for the wild type APP695 sequence were grown in Dulbecco's Modified Eagle Medium (“DMEM”) supplemented with 10% fetal bovine serum, penicillin/streptomycin and 150 μg/mL G418. Cells were plated in 96-well plates at 35,000 cells/well and allowed to attach for 8-12 hours. Media was changed to DMEM supplemented with 10% fetal bovine serum, penicillin/streptomycin 15 minutes prior to compound addition. Diluted compounds were then added at a final concentration of 0.5% DMSO. After 48 hours, 4 μL of media from each well was added to a corresponding well of a 384 well plate (Perkin Elmer Cat#6008280) containing the HTRF reagents. HTRF reagents were obtained from the CisBio Amyloid β 1-40 peptide assay kit (Cat#62B40PEC) and were prepared as follows anti-peptide β (1-40)-Cryptate and anti-peptide […] were stored in 2 plate aliquots at −80° C. Diluent and Reconstitution buffer were stored at 4° C. Aliquots of the two antibodies were diluted 1:100 with Reconstitution buffer, and this mixture was diluted 1:2 with Diluent. 12 μL of the reagent mixture was added to the required wells of the 384 well assay plate. The assay plate was incubated at 4° C. for 17 hours and then analyzed for fluorescence at 665 and 620 nm. The following compounds were tested in the above assay. Some compounds were tested more than once, and the average is reported below.

[1] = inhibition of Amyloidβ 1-40 production, HEK-293 cells stably transfected with wild type APP695, 48 hours incubation, average where tested more than once, read-out: IC50

T1 sequence (P56817 46-501): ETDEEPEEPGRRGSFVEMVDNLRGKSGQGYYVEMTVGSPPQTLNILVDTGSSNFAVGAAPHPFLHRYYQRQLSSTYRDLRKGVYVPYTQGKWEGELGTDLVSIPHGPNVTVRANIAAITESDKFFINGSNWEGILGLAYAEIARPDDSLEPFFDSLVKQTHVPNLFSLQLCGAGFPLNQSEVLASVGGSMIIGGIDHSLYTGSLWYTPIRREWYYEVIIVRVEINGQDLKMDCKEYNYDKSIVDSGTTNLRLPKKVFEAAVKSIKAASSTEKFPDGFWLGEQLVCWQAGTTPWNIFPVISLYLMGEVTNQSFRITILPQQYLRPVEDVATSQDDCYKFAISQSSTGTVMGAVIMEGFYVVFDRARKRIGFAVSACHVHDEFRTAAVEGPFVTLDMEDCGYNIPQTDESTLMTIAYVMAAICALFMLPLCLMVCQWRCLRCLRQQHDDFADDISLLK

Row | Structure (SMILES) | IC50 [1] [µM] | IC50 [µM]
1 | NC1=NC2(CS1)c1cc(-c3cncc(Cl)c3)ccc1OC1CC(O)CC[C@@H]12 (single isomer, unassigned) [Example 25, (4a′S*,9aR*)-2-amino-7′-(5-chloropyridin-3-yl)-1′,2′,3′,4′,4a′,9a′-hexahydro-5H-spiro[thiazole-4,9′-xanthen]-3′-ol] | 0.0241 | –
2 | C[C@H]1OCCC2Oc3ccc(-c4cncc(Cl)c4)cc3[C@@]3(COC(N)=N3)[C@@H]21 (relative stereo) [Example 90, (1′R*4R*,4a′R*,10a′R*)-8′-(5-chloropyridin-3-yl)-1′-methyl-3′,4′,4a′,10a′-tetrahydro-1′H,5H-spiro[oxazole-4,10′-pyrano[4,3-b]chromen]-2-amine] | 1.34 | –
3 | CN1C(=O)CC2(N=C1N)c1cc(-c3cc(F)cc(Cl)c3)ccc1OC1CC(=O)CCC12 (centres unmarked) [Example 4, 2-amino-7′-(3-chloro-5-fluorophenyl)-1-methyl-1′,4′,4a′,9a′-tetrahydro-1H-spiro[pyrimidine-4,9′-xanthene]-3′,6(2′H,5H)-dione] | 1.19 | –
4 | NC1=NC2(CS1)c1cc(-c3cncnc3)ccc1OC1CCC(O)C[C@@H]12 (stereo in doubt) [Example 34, (4a′S*,9aR*)-2-amino-7′-(pyrimidin-5-yl)-1′,2′,3′,4′,4a′,9a′-hexahydro-5,4-spiro[thiazole-4,9′-xanthen]-2′-ol] | 0.0902 | –
5 | C[C@@]12CCO[C@@H]1[C@@]1(COC(N)=N1)c1cc(-c3cc(F)cc(Cl)c3)ccc1O2 [Example 266, (3aR,4′S,9aR)-7-(3-chloro-5-fluorophenyl)-3a-methyl-2,3,3a,9a-tetrahydro-5′H-spiro[furo[3,2-b]chromene-9,4′-oxazol]-2′-amine] | 5.29 | –
6 | CN1C(=O)CC2(N=C1N)c1cc(-c3cc(F)cc(Cl)c3)ccc1OC1CC3(CCC12)OCCO3 (centres unmarked) [Example 3, 2″-amino-7′-(3-chloro-5-fluorophenyl)-1″-methyl-2′,4′,4′a,5″,6″,9′a-hexahydro-1′H,1″H-dispiro[1,3-dioxolane-2,3′-xanthene-9′,4″-pyrimidine]-6″-one] | 3.08 | –
7 | NC1=N[C@@]2(CS1)c1cc(-c3cncnc3)ccc1O[C@H]1CC[C@H](O)C[C@@H]12 [Example 146, (2′S,4R,4a′S,9a′R)-2-amino-7′-(pyrimidin-5-yl)-1′,2′,3′,4′,4a′,9a′-hexahydro-5H-spiro[thiazole-4,9′-xanthen]-2′-ol] | 0.192 | –
8 | NC1=NC2(CO1)c1cc(NC(=O)c3ccc(Cl)cn3)ccc1OC1CCCCC12 (single isomer, unassigned) [Example 16, N-(2-amino-1′,2′,3′,4′,4a′,9a′-hexahydro-5H-spiro[oxazole-4,9′-xanthene]-7′-yl)-5-chloropicolinamide] | 0.171 | –
9 | NC1=NC2(CO1)c1cc(-c3cncnc3)ccc1OC1CCC(O)C[C@@H]12 (stereo in doubt) [Example 32, (4a′S*,9a′R*)-2-amino-7′-(pyrimidin-5-yl)-1′,2′,3′,4′,4a′,9a′-hexahydro-5H-spiro[oxazole-4,9′-xanthen]-2′-ol] | 0.118 | –
10 | NC1=N[C@@]2(CO1)c1cc(-c3cncnc3)ccc1O[C@H]1CC[C@H](OCC3CC3)C[C@@H]12 [Example 150, (2′S,4R,4a′S,9a′R)-2′-(cyclopropylmethoxy)-7′-(pyrimidin-5-yl)-1′,2′,3′,4′,4a′,9a′-hexahydro-5H-spiro[oxazole-4,9′-xanthen]-2-amine] | 0.1 | –
11 | CCO[C@H]1CC[C@@H]2Oc3ccc(-c4cc(F)cc(C#N)c4)cc3C3(COC(N)=N3)[C@H]2C1 (stereo partly drawn) [Example 159, 3-((2′S,4a′S,9a′R)-2-amino-2′-ethoxy-1′,2′,3′,4′,4a′,9a′-hexahydro-5H-spiro[oxazole-4,9′-xanthen]-7′-yl)-5-fluorobenzonitrile] | 0.0761 | –
12 | C[C@@]12CCOC[C@H]1C1(COC(N)=N1)c1cc(-c3cccnc3F)ccc1C2 (relative stereo) [Example 118, (4aR*,10aR*)-8-(2-fluoropyridin-3-yl)-4a-methyl-1,3,4,4a,5,10a-hexahydro-5′H-spiro[benzo[g]isochromene-10,4′-oxazol]-2′-amine] | – | 0.219
13 | NC1=NC2(CO1)c1cc(-c3cncc(Cl)c3)ccc1O[C@H]1CCC(O)C[C@H]12 (some centres unmarked) [Example 48, (4a′S,9a′S)-2-amino-7′-(5-chloropyridin-3-yl)-1′,2′,3′,4′,4a′,9a′-hexahydro-5H-spiro[oxazole-4,9′-xanthen]-2′-ol] | 2.55 | –
14 | CC(C)CS(=O)(=O)N1CC[C@@H]2Oc3ccc(-c4cccnc4F)cc3[C@]3(COC(N)=N3)[C@H]2C1 (single isomer, unassigned) [Example 120] | 0.041 | –
15 | NC1=N[C@]2(CO1)c1cc(-c3cncc(Cl)c3)ccc1OC1CC[C@H](OCC3CC3)C[C@@H]12 (relative stereo) [Example 29, (4S*,4a′S*,9a′R*)-7′-(5-chloropyridin-3-yl)-2′-(cyclopropylmethoxy)-1′,2′,3′,4′,4a′,9a′-hexahydro-5H-spiro[oxazole-4,9′-xanthen]-2-amine] | 0.0089 | –
16 | NC1=NC2(CO1)c1cc(-c3cccnc3F)ccc1OC1CCNC[C@@H]12 (mixture of isomers) [Example 41, rac-trans-(4a,10a)-8-(2-fluoropyridin-3-yl)-1,2,3,4,4a,10a-hexahydro-5′H-spiro[chromeno[3,2-c]pyridine-10,4′-oxazol]-2′-amine] | 1.33 | –
17 | NC1=N[C@@]2(CO1)c1cc(-c3cccnc3F)ccc1O[C@H]1CCN(C(=O)CC3CC3)C[C@@H]12 (relative stereo) [Example 218, 1-((4aS*,4′R*,10aR*)-2′-amino-8-(2-fluoropyridin-3-yl)-1,4,4a,10a-tetrahydro-5′H-spiro[chromeno[3,2-c]pyridine-10,4′-oxazol]-2(3H)-yl)-2-cyclopropylethanone] | 0.457 | –
18 | NC1=NC2(CO1)c1cc(-c3cncnc3)ccc1OC1CCCCC12 (single isomer, unassigned) [Example 11, 7′-(pyrimidin-5-yl)-1′,2′,3′,4′,4a′,9a′-hexahydro-5H-spiro[oxazole-4,9′-xanthen]-2-amine] | 0.0696 | –
19 | Cc1nc(C(=O)Nc2ccc3c(c2)C2(COC(N)=N2)C2CCCCC2O3)co1 (single isomer, unassigned) [Example 14, N-(2-amino-1′,2′,3′,4′,4a′,9a′-hexahydro-5H-spiro[oxazole-4,9′-xanthene]-7′-yl)-2-methyloxazole-4-carboxamide] | 0.0735 | –
20 | NC1=NC2(CS1)c1cc(-c3cncnc3)ccc1O[C@H]1CC(O)CC[C@@H]12 (relative stereo) [Example 26, (4a′S*,9a′R*)-2-amino-7′-(pyrimidin-5-yl)-1′,2′,3′,4′,4a′,9a′-hexahydro-5H-spiro[thiazole-4,9′-xanthen]-3′-ol] | 0.0866 | –
21 | NC1=NC2(CO1)c1cc(-c3cccnc3F)ccc1OC1CCC3(CCO3)C[C@@H]12 (some centres unmarked) [Example 199] | 0.63 | –
22 | NC1=NC2(CO1)c1cc(-c3cncc(Cl)c3)ccc1O[C@@H]1CCCC[C@H]12 (single isomer, unassigned) [Example 10, 7′-(5-chloropyridin-3-yl)-1′,2′,3′,4′,4a′,9a′-hexahydro-5H-spiro[oxazole-4,9′-xanthen]-2-amine] | 0.0585 | –
23 | NC1=NC2(CO1)c1cc(-c3cccnc3F)ccc1OC1CCN(CC(F)(F)F)C[C@@H]12 (mixture of isomers) [Example 44, rac-trans-(4a,10a)-8-(2-fluoropyridin-3-yl)-2-(2,2,2-trifluoroethyl)-1,2,3,4,4a,10a-hexahydro-5′H-spiro[chromeno[3,2-c]pyridine-10,4′-oxazol]-2′-amine] | 0.304 | –
